{"source": "patent US20020123080A1", "about": "“Inhibiting proliferation of cancer cells” (Tufts University, priority 1996, published 2002)", "data": [{"test_system": "MCF-7 cells", "assay": "MCF-7 cell proliferation yield assay (nuclei counted after 4 days) with or without hormone", "type": "cell-based, human", "settings": "hormone added with the inhibitor (CDHuS, CDHA, rHA); estradiol at 100 pM; the other hormones tested against rHA, data not shown", "experimental": "A clonal population of the human breast cancer MCF-7 cell line was used in some of the experiments described below. These cells were routinely grown in 5% fetal bovine serum (FBS) supplemented-Dulbecco's Modified Eagle's Medium (DME). […] Estrogen non-target, serum-insensitive human breast cancer MDA-MB231 cells (ATCC, Rockville, Md.) were used as controls; they were grown under the same conditions as MCF-7 cells.\nTo assess the inhibitory effect of serum or purified protein preparations, 4×10^4 cells/well were seeded in 12-well Falcon Multiplates in 5% FBS; they were allowed to attach for 24 h before exposing them to test medium. Cell proliferation yields were measured after 4 days in DME plus 25 ug transferrin (T)/ml and 100 ng insulin (I)/ml ([…]) alone, or ITDME plus CD human serum (CDHuS), or purified protein preparations. Each sample was tested in duplicate in the presence or absence of 100 pM estradiol (E2) and each experiment was repeated at least three times. Phenol red-free media were used in all experiments involving cell proliferation rates or yields. Cells were lysed and nuclei counted on a Coulter Counter Model ZM.", "values": [{"smiles": "C[C@]1(O)CC[C@H]2[C@@H]3CCC4=CC(=O)CCC4=C3C=C[C@@]21C", "note": "[R1881]", "reversal by hormone of the inhibitory effect on MCF-7 proliferation": "failed to reverse the effect of rHA"}, {"smiles": "CC(=O)[C@H]1CC[C@H]2[C@@H]3CCC4=CC(=O)CC[C@]4(C)[C@H]3CC[C@]12C", "note": "[Progesterone]", "reversal by hormone of the inhibitory effect on MCF-7 proliferation": "failed to reverse the effect of rHA"}, {"smiles": "C[C@]12CCC(=O)C=C1CC[C@@H]1[C@@H]2[C@@H](O)C[C@@]2(C)[C@H]1CC[C@]2(O)C(=O)CO", "note": "[hydrocortisone]", "reversal by hormone of the inhibitory effect on MCF-7 proliferation": "failed to reverse the effect of rHA"}, {"smiles": "C[C@]12CCC(=O)C[C@@H]1CC[C@@H]1[C@@H]2CC[C@]2(C)[C@@H](O)CC[C@@H]12", "note": "[5α-dihydrotestosterone]", "reversal by hormone of the inhibitory effect on MCF-7 proliferation": "failed to reverse the effect of rHA"}, {"smiles": "N[C@@H](Cc1cc(I)c(Oc2cc(I)c(O)c(I)c2)c(I)c1)C(=O)O", "note": "[thyroxine]", "reversal by hormone of the inhibitory effect on MCF-7 proliferation": "failed to reverse the effect of rHA"}]}]}
